Measurements taken from the supplement of paper PMC10307832.

Key:
Experiment in all cases: relative viability (nuclei count vs DMSO), 5 days (fraction); higher = more cells survive
Entinostat + Navitoclax = compound: Nc1ccccc1NC(=O)c1ccc(CNC(=O)OCc2cccnc2)cc1 [Entinostat] + CC1(C)CCC(c2ccc(Cl)cc2)=C(CN2CCN(c3ccc(C(=O)NS(=O)(=O)c4ccc(N[C@H](CCN5CCOCC5)CSc5ccccc5)c(S(=O)(=O)C(F)(F)F)c4)cc3)CC2)C1 [Navitoclax] (partner 0.5 µM)
Outline: (§1)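 Five library-drug doses in √10 steps were combined with a fixed anchor-drug dose, or a single drug was given alone, by pin tool to lung cancer cell lines in 1536-well plates the day after seeding. Nuclei were stained and counted after 5 days. Relative viability is the nuclei count in treated wells over that in vehicle wells, taken as the median of duplicate plates.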

Entinostat + Pemetrexed = compound: Nc1ccccc1NC(=O)c1ccc(CNC(=O)OCc2cccnc2)cc1 [Entinostat] + Nc1nc2[nH]cc(CCc3ccc(C(=O)N[C@@H](CCC(=O)O)C(=O)O)cc3)c2c(=O)[nH]1 [Pemetrexed] (partner 0.2 µM)
Outline: as §1

Entinostat + Dasatinib = compound: Nc1ccccc1NC(=O)c1ccc(CNC(=O)OCc2cccnc2)cc1 [Entinostat] + Cc1nc(Nc2ncc(C(=O)Nc3c(C)cccc3Cl)s2)cc(N2CCN(CCO)CC2)n1 [Dasatinib] (partner 0.075 µM)
Outline: as §1

Entinostat + Foretinib = compound: Nc1ccccc1NC(=O)c1ccc(CNC(=O)OCc2cccnc2)cc1 [Entinostat] + COc1cc2c(Oc3ccc(NC(=O)C4(C(=O)Nc5ccc(F)cc5)CC4)cc3F)ccnc2cc1OCCCN1CCOCC1 [Foretinib] (partner 0.25 µM)
Outline: as §1

Cell Line | relative viability (Entinostat + Navitoclax; first compound 0.02 µM) | relative viability (Entinostat + Navitoclax; first compound 0.06325 µM) | relative viability (Entinostat + Navitoclax; first compound 0.2 µM) | relative viability (Entinostat + Navitoclax; first compound 0.6325 µM) | relative viability (Entinostat + Navitoclax; first compound 2 µM) | relative viability (Entinostat + Pemetrexed; first compound 0.02 µM) | relative viability (Entinostat + Pemetrexed; first compound 0.06325 µM) | relative viability (Entinostat + Pemetrexed; first compound 0.2 µM) | relative viability (Entinostat + Pemetrexed; first compound 0.6325 µM) | relative viability (Entinostat + Pemetrexed; first compound 2 µM) | relative viability (Entinostat + Dasatinib; first compound 0.02 µM) | relative viability (Entinostat + Dasatinib; first compound 0.06325 µM) | relative viability (Entinostat + Dasatinib; first compound 0.2 µM) | relative viability (Entinostat + Dasatinib; first compound 0.6325 µM) | relative viability (Entinostat + Dasatinib; first compound 2 µM) | relative viability (Entinostat + Foretinib; first compound 0.02 µM) | relative viability (Entinostat + Foretinib; first compound 0.06325 µM) | relative viability (Entinostat + Foretinib; first compound 0.2 µM) | relative viability (Entinostat + Foretinib; first compound 0.6325 µM) | relative viability (Entinostat + Foretinib; first compound 2 µM)
NCI-H1650 | 1.2 | 1.28 | 1.1 | 0.673 | 0.673 | 0.389 | 0.455 | 0.44 | 0.359 | 0.241 | 0.385 | 0.354 | 0.407 | 0.284 | 0.212 | 1.08 | 1.06 | 1.11 | 0.681 | 0.57
NCI-H1651 | 1.02 | 1.06 | 1.09 | 0.709 | 0.273 | 0.715 | 0.777 | 0.655 | 0.639 | 0.435 | 0.447 | 0.527 | 0.402 | 0.338 | 0.192 | 0.817 | 0.855 | 0.851 | 0.632 | 0.394
NCI-H1666 | 1.13 | 1.09 | 0.861 | 0.463 | 0.277 | 0.866 | 0.989 | 0.913 | 0.75 | 0.579 | 0.751 | 0.781 | 0.833 | 0.595 | 0.455 | 1.06 | 1.02 | 0.964 | 0.537 | 0.366
NCI-H1734 | 0.87 | 0.874 | 0.86 | 0.701 | 0.412 | 0.436 | 0.419 | 0.492 | 0.414 | 0.382 | 0.486 | 0.585 | 0.578 | 0.476 | 0.403 | 0.883 | 0.939 | 0.929 | 0.773 | 0.603
NCI-H1755 | 1.05 | 0.954 | 0.806 | 0.451 | 0.332 | 0.422 | 0.437 | 0.407 | 0.358 | 0.374 | 0.431 | 0.503 | 0.445 | 0.28 | 0.218 | 0.901 | 0.864 | 0.805 | 0.713 | 0.421
NCI-H1793 | 0.405 | 0.599 | 0.405 | 0.374 | 0.218 | 0.984 | 1.08 | 1.08 | 0.572 | 0.316 | 0.422 | 0.404 | 0.376 | 0.228 | 0.192 | 0.678 | 0.753 | 0.782 | 0.472 | 0.326
NCI-H1915 | 0.809 | 0.716 | 0.813 | 0.613 | 0.283 | 0.417 | 0.536 | 0.475 | 0.403 | 0.188 | 0.336 | 0.27 | 0.238 | 0.173 | 0.151 | 1.06 | 1.06 | 1.07 | 1 | 0.592
NCI-H1944 | 0.985 | 0.998 | 0.938 | 0.485 | 0.311 | 0.498 | 0.576 | 0.465 | 0.244 | 0.22 | 0.226 | 0.205 | 0.199 | 0.17 | 0.175 | 1 | 0.711 | 0.472 | 0.364 | 0.218
NCI-H1975 | 0.906 | 0.782 | 0.751 | 0.289 | 0.188 | 0.283 | 0.306 | 0.27 | 0.219 | 0.185 | 0.352 | 0.307 | 0.316 | 0.199 | 0.134 | 0.904 | 0.78 | 0.64 | 0.326 | 0.224
NCI-H1993 | 0.869 | 0.857 | 0.789 | 0.841 | 0.73 | 0.53 | 0.609 | 0.558 | 0.536 | 0.472 | 0.747 | 0.591 | 0.535 | 0.496 | 0.259 | 0.891 | 0.686 | 0.664 | 0.618 | 0.637
NCI-H2009 | 1.21 | 1.19 | 1.13 | 0.816 | 0.52 | 0.949 | 0.965 | 0.963 | 0.84 | 0.619 | 0.329 | 0.331 | 0.376 | 0.346 | 0.241 | 1.15 | 1.19 | 1.19 | 0.942 | 0.894
NCI-H2023 | 0.916 | 0.692 | 0.496 | 0.163 | 0.138 | 0.199 | 0.192 | 0.152 | 0.127 | 0.0994 | 0.55 | 0.439 | 0.326 | 0.135 | 0.0809 | 0.765 | 0.749 | 0.408 | 0.162 | 0.11
NCI-H2085 | 1 | 1.06 | 1.04 | 0.801 | 0.604 | 0.826 | 0.918 | 0.869 | 0.712 | 0.532 | 0.226 | 0.243 | 0.228 | 0.248 | 0.244 | 1.01 | 0.969 | 0.984 | 0.54 | 0.401
NCI-H2087 | 0.785 | 0.853 | 0.724 | 0.586 | 0.337 | 0.68 | 0.581 | 0.67 | 0.613 | 0.304 | 1 | 0.837 | 0.711 | 0.373 | 0.204 | 1.18 | 1.04 | 0.89 | 0.352 | 0.256
NCI-H2126 | 0.849 | 0.833 | 0.855 | 0.548 | 0.396 | 0.71 | 0.687 | 0.674 | 0.405 | 0.306 | 0.615 | 0.545 | 0.443 | 0.349 | 0.268 | 1.12 | 1.06 | 1.05 | 0.572 | 0.415
NCI-H2170 | 0.626 | 0.553 | 0.502 | 0.33 | 0.196 | 0.255 | 0.283 | 0.273 | 0.228 | 0.229 | 0.532 | 0.636 | 0.69 | 0.558 | 0.365 | 0.978 | 1.05 | 0.964 | 0.597 | 0.613
NCI-H2228 | 1.03 | 0.758 | 0.52 | 0.365 | 0.349 | 0.316 | 0.399 | 0.323 | 0.271 | 0.172 | 0.446 | 0.358 | 0.3 | 0.208 | 0.126 | 0.994 | 0.787 | 0.914 | 0.526 | 0.288
NCI-H2347 | 0.839 | 0.746 | 0.514 | 0.19 | 0.227 | 0.442 | 0.447 | 0.339 | 0.369 | 0.341 | 0.325 | 0.328 | 0.196 | 0.193 | 0.205 | 0.837 | 0.812 | 0.454 | 0.254 | 0.37
NCI-H2405 | 1 | 1.13 | 1.15 | 0.814 | 0.655 | 1.06 | 1.22 | 1.02 | 0.978 | 0.667 | 0.239 | 0.208 | 0.217 | 0.182 | 0.129 | 1.06 | 1.11 | 0.979 | 0.902 | 0.614
NCI-H3122 | 1.04 | 1 | 1.12 | 0.989 | 0.712 | 0.186 | 0.208 | 0.2 | 0.171 | 0.185 | 1.03 | 0.98 | 0.812 | 0.629 | 0.0849 | 0.992 | 0.995 | 0.999 | 0.973 | 0.776
PC-3 [JPC-3] | 0.786 | 0.846 | 0.777 | 0.522 | 0.423 | 1.36 | 1.05 | 0.924 | 0.686 | 0.461 | 1.07 | 0.87 | 0.95 | 0.666 | 0.405 | 0.988 | 0.977 | 0.871 | 0.732 | 0.41
PC-14 | 0.999 | 1.07 | 1.14 | 0.47 | 0.113 | 0.137 | 0.163 | 0.139 | 0.198 | 0.146 | 0.236 | 0.261 | 0.217 | 0.118 | 0.0579 | 0.991 | 0.951 | 0.969 | 0.441 | 0.232
RERF-LC-KJ | 0.679 | 0.905 | 1.13 | 0.414 | 0.314 | 0.494 | 0.486 | 0.474 | 0.408 | 0.319 | 0.82 | 0.656 | 0.731 | 0.374 | 0.237 | 0.853 | 0.856 | 0.84 | 0.516 | 0.285
SK-LU-1 | 0.633 | 0.76 | 1.1 | 0.37 | 0.368 | 1 | 0.921 | 0.988 | 0.879 | 0.485 | 0.186 | 0.237 | 0.186 | 0.199 | 0.147 | 0.865 | 0.847 | 0.836 | 0.589 | 0.447
SK-MES-1 | 1.2 | 1.21 | 1.24 | 1.17 | 0.788 | 0.929 | 1.01 | 1.04 | 0.944 | 0.577 | 0.403 | 0.498 | 0.541 | 0.338 | 0.175 | 1.08 | 1.09 | 1.15 | 0.96 | 0.712
SW 1573 | 0.933 | 1.35 | 1.07 | 0.996 | 0.628 | 0.806 | 0.88 | 1.08 | 0.966 | 0.452 | 0.532 | 0.518 | 0.711 | 0.627 | 0.454 | 0.966 | 0.927 | 0.877 | 0.917 | 0.7
